Measured values: patent US4731109A, “Herbicidal 2-haloacetanilides” (Monsanto Company, priority 1982, dated 1988)
Read-outs that look alike come from different tables or passages of the source.

Key:
Assay in all cases: Field pre-emergence selectivity test
Type in all cases: in vivo
Field Corn = conditions: Zea mays, 1008 h, 6 weeks, read-out: Percent Inhibition; for inhibition at 560 g/ha: 0.56 Kg/Ha; for inhibition at 1120 g/ha: 1.12 Kg/Ha; for inhibition at 2240 g/ha: 2.24 Kg/Ha; for inhibition at 4480 g/ha: 4.48 Kg/Ha
Method: (§1) The compound of Examples 1 and 2 was also tested in the field to determine its pre-emergence selectivity against foxtail (spp), barnyardgrass, wild proso millet, smartweed, lambsquarters and pigweed in a plurality of crops; the data (representing three replicate runs) are shown in Table VII for both surface application (S.A.) and soil incorporation (PPI, i.e., preplant incorporation) of the herbicide. The seeds were planted in a fine seedbed of silt loam of intermediate moisture. The seeds were planted at a depth of two inches (5.08 cm). First rainfall (0.2"; 0.51 cm) occurred the day following treatment, the second rain (0.25"; […]) two days after treatment; cumulative rainfall 22 days after treatment was 1.8" (4.57 cm). Observations were made 6 weeks after treatment.

Smartweed = conditions: 1008 h, 6 weeks, read-out: Percent Inhibition; for inhibition at 1120 g/ha: 1.12 Kg/Ha; for inhibition at 2240 g/ha: 2.24 Kg/Ha
Method: as §1

Sorghum = conditions: 1008 h, 6 weeks, read-out: Percent Inhibition; for inhibition at 560 g/ha: 0.56 Kg/Ha; for inhibition at 1120 g/ha: 1.12 Kg/Ha; for inhibition at 2240 g/ha: 2.24 Kg/Ha; for inhibition at 4480 g/ha: 4.48 Kg/Ha
Method: as §1

wild proso millet = conditions: 1008 h, 6 weeks, read-out: Percent Inhibition; for inhibition at 560 g/ha: 0.56 Kg/Ha; for inhibition at 1120 g/ha: 1.12 Kg/Ha; for inhibition at 2240 g/ha: 2.24 Kg/Ha; for inhibition at 4480 g/ha: 4.48 Kg/Ha
Method: as §1

Lambsquarters = conditions: Chenopodium album, 1008 h, 6 weeks, read-out: Percent Inhibition; for inhibition at 2240 g/ha: 2.24 Kg/Ha; for inhibition at 4480 g/ha: 4.48 Kg/Ha
Description: (§2) The seeds were planted in a fine seedbed of silt loam of intermediate moisture. The seeds were planted at a depth of two inches (5.08 cm). First rainfall (0.2"; 0.51 cm) occurred the day following treatment, the second rain (0.25"; […]) two days after treatment; cumulative rainfall 22 days after treatment was 1.8" (4.57 cm). Observations were made 6 weeks after treatment.

Sweet Corn = conditions: Zea mays, 1008 h, 6 weeks, read-out: Percent Inhibition; for inhibition at 560 g/ha: 0.56 Kg/Ha; for inhibition at 1120 g/ha: 1.12 Kg/Ha; for inhibition at 2240 g/ha: 2.24 Kg/Ha; for inhibition at 4480 g/ha: 4.48 Kg/Ha
Description: as §2

cotton = conditions: Gossypium hirsutum, 1008 h, 6 weeks, read-out: Percent Inhibition; for inhibition at 560 g/ha: 0.56 Kg/Ha; for inhibition at 1120 g/ha: 1.12 Kg/Ha; for inhibition at 2240 g/ha: 2.24 Kg/Ha; for inhibition at 4480 g/ha: 4.48 Kg/Ha
Description: as §2

peanuts = conditions: 1008 h, 6 weeks, read-out: Percent Inhibition; for inhibition at 560 g/ha: 0.56 Kg/Ha; for inhibition at 1120 g/ha: 1.12 Kg/Ha; for inhibition at 2240 g/ha: 2.24 Kg/Ha; for inhibition at 4480 g/ha: 4.48 Kg/Ha
Description: as §2

Compound: CC(C)OCN(C(=O)CCl)c1ccccc1C(F)(F)F [Example 2, N--(isopropoxymethyl)-2'-trifluoromethyl-2-chloroacetanilide]
- inhibition at 560 g/ha (Field Corn; P.P.I.): 0%
- inhibition at 1120 g/ha (Field Corn; P.P.I.): 0%
- inhibition at 2240 g/ha (Field Corn; P.P.I.): 0%
- inhibition at 4480 g/ha (Field Corn; P.P.I.): 13%
- inhibition at 560 g/ha (Field Corn; S.A.): 0%
- inhibition at 1120 g/ha (Field Corn; S.A.): 0%
- inhibition at 2240 g/ha (Field Corn; S.A.): 0%
- inhibition at 4480 g/ha (Field Corn; S.A.): 10%
- inhibition at 1120 g/ha (Smartweed; P.P.I.): 75%
- inhibition at 2240 g/ha (Smartweed; P.P.I.): 95%
- inhibition at 560 g/ha (Smartweed; S.A., 0.56 Kg/Ha): 0%
- inhibition at 1120 g/ha (Smartweed; S.A.): 10%
- inhibition at 2240 g/ha (Smartweed; S.A.): 20%
- inhibition at 4480 g/ha (Smartweed; S.A., 4.48 Kg/Ha): 63%
- inhibition at 560 g/ha (Sorghum; P.P.I.): 7%
- inhibition at 1120 g/ha (Sorghum; P.P.I.): 27%
- inhibition at 2240 g/ha (Sorghum; P.P.I.): 38%
- inhibition at 4480 g/ha (Sorghum; P.P.I.): 90%
- inhibition at 560 g/ha (Sorghum; S.A.): 0%
- inhibition at 1120 g/ha (Sorghum; S.A.): 0%
- inhibition at 2240 g/ha (Sorghum; S.A.): 5%
- inhibition at 4480 g/ha (Sorghum; S.A.): 33%
- inhibition at 560 g/ha (wild proso millet; P.P.I.): 35%
- inhibition at 1120 g/ha (wild proso millet; P.P.I.): 48%
- inhibition at 2240 g/ha (wild proso millet; P.P.I.): 68%
- inhibition at 4480 g/ha (wild proso millet; P.P.I.): 87%
- inhibition at 560 g/ha (wild proso millet; S.A.): 27%
- inhibition at 1120 g/ha (wild proso millet; S.A.): 63%
- inhibition at 2240 g/ha (wild proso millet; S.A.): 75%
- inhibition at 4480 g/ha (wild proso millet; S.A.): 93%
- inhibition at 2240 g/ha (Lambsquarters; P.P.I.): 95%
- inhibition at 4480 g/ha (Lambsquarters; P.P.I.): 100%
- inhibition at 560 g/ha (Lambsquarters; S.A., 0.56 Kg/Ha): 0%
- inhibition at 1120 g/ha (Lambsquarters; S.A., 1.12 Kg/Ha): 7%
- inhibition at 2240 g/ha (Lambsquarters; S.A.): 20%
- inhibition at 4480 g/ha (Lambsquarters; S.A.): 62%
- inhibition at 560 g/ha (Sweet Corn; P.P.I.): 0%
- inhibition at 1120 g/ha (Sweet Corn; P.P.I.): 0%
- inhibition at 2240 g/ha (Sweet Corn; P.P.I.): 13%
- inhibition at 4480 g/ha (Sweet Corn; P.P.I.): 35%
- inhibition at 560 g/ha (Sweet Corn; S.A.): 0%
- inhibition at 1120 g/ha (Sweet Corn; S.A.): 0%
- inhibition at 2240 g/ha (Sweet Corn; S.A.): 0%
- inhibition at 4480 g/ha (Sweet Corn; S.A.): 23%
- inhibition at 560 g/ha (cotton; P.P.I.): 10%
- inhibition at 1120 g/ha (cotton; P.P.I.): 23%
- inhibition at 2240 g/ha (cotton; P.P.I.): 30%
- inhibition at 4480 g/ha (cotton; P.P.I.): 75%
- inhibition at 560 g/ha (cotton; S.A.): 0%
- inhibition at 1120 g/ha (cotton; S.A.): 8%
- inhibition at 2240 g/ha (cotton; S.A.): 8%
- inhibition at 4480 g/ha (cotton; S.A.): 43%
- inhibition at 560 g/ha (peanuts; P.P.I.): 0%
- inhibition at 1120 g/ha (peanuts; P.P.I.): 5%
- inhibition at 2240 g/ha (peanuts; P.P.I.): 17%
- inhibition at 4480 g/ha (peanuts; P.P.I.): 45%
- inhibition at 560 g/ha (peanuts; S.A.): 0%
- inhibition at 1120 g/ha (peanuts; S.A.): 0%
- inhibition at 2240 g/ha (peanuts; S.A.): 5%
- inhibition at 4480 g/ha (peanuts; S.A.): 20%
